Laboratory results taken from US20250320496A1, “MODULATION OF ABCB11 GENE TRANSCRIPTION USING ANTISENSE OLIGONUCLEOTIDES TARGETING REGULATORY RNAS” (CAMP4 Therapeutics Corporation, priority 2022, published 2025).
Strand notation (5' to 3'): a small letter for the sugar, then the base; units joined by * are phosphorothioate-linked, units joined directly phosphodiester-linked; [ ] holds rarer units or linkages, { } end groups; capitals alone tell only the bases. e = 2'-O-(2-methoxyethyl) (MOE); l = locked nucleic acid (LNA); [5mC] = 5-methylcytosine; d = 2'-deoxy (DNA)

Test system: human ABCB11 mRNA
Assay: ASO treatment of primary human hepatocytes (PHH), ABCB11 mRNA by RT-qPCR normalized to B2M
Assay type: cell-based
Conditions: primary human hepatocytes; for ABCB11 mRNA FC (5 μM ASO vs. UNT): normalized to untreated PHHs (UNT); for ABCB11 FC mRNA (5 μM ASO vs. untreated): 5 μM ASO with PO-modifications, normalized to untreated hepatocytes
Outline: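 ABCB11 mRNA was quantified by Taqman RT-qPCR relative to B2M and expressed as fold over untreated cells. Cells were cryopreserved primary human hepatocytes given ASO in Matrigel-supplemented medium 4 h after plating, at 1.25, 2.5, 5 or 10 μM (5 μM for screening), and harvested after 72 hrs.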

Substance | ABCB11 mRNA FC (5 μM ASO vs. UNT) [fold change] | ABCB11 FC mRNA (5 μM ASO vs. untreated) [fold change]
CO-4043 (antisense eG*e[5mC]*e[5mC]*e[5mC]*eA*e[5mC]*eT*e[5mC]*eT*eG*e[5mC]*eT*e[5mC]*eA*eA*eT*eT*eT*eG*e[5mC]) | 1.934 | –
CO-4037 (antisense eG*eG*eG*eA*e[5mC]*eA*eT*eT*eG*eA*eT*e[5mC]*e[5mC]*eT*eT*eA*eG*eG*e[5mC]*eA) | 0.697 | –
CO-4525 (antisense eA*e[5mC]*e[5mC]*e[5mC]*eA*e[5mC]*eA*eT*eA*eG*eT*eT*eG*eT*eA*e[5mC]*eT*e[5mC]*eT*e[5mC]) | 0.995 | –
CO-11239 (antisense eG*eT*eG*eGlA*eG*e[5mC]*eAeA*lA*e[5mC]*eTeA*eG*lG*e[5mC]eA*e[5mC]*eT*eG) | – | 1.53
CO-7026 (antisense eA*e[5mC]*eA*eG*eT*eG*eA*eG*e[5mC]*eT*eT*eA*eT*e[5mC]*eT*eG*eG*eA*eA*eA) | 1.158 | –
CO-4504 (antisense eG*eT*eG*eT*e[5mC]*eT*eA*eT*eT*eT*eG*eG*eT*eA*eT*e[5mC]*eA*eG*eA*e[5mC]) | 1.232 | –
CO-6670 (antisense eT*eA*eG*eT*eT*eT*eA*eG*eT*eT*eG*eA*e[5mC]*eT*eG*e[5mC]*eA*eG*eA*eG) | 1.157 | –
CO-7171 (antisense eA*eG*eT*e[5mC]*eT*eT*eA*eT*eT*eT*eG*eG*e[5mC]*eG*eT*eT*eA*eT*eT*eA) | 1.46 | –
CO-4494 (antisense eG*e[5mC]*eA*eG*eG*eA*eT*eG*eA*eA*eG*eT*eT*eT*eA*e[5mC]*eA*eA*eG*eG) | 1.12 | –
CO-7060 (eT*e[5mC]*eT*eG*lG*dA*dA*dA*lA*dT*dA*dA*lT*dG*d[5mC]*e[5mC]*lT*eT*eT*e[5mC]; antisense) | 1.17 | –
CO-7033 (antisense eG*eA*eG*eA*e[5mC]*eA*eA*eA*eG*eA*eA*eT*e[5mC]*eG*e[5mC]*eT*eG*eT*eG*eG) | 1.316 | –
CO-4063 (antisense eG*e[5mC]*eA*e[5mC]*e[5mC]*e[5mC]*eA*eA*e[5mC]*e[5mC]*eA*eA*eG*eT*e[5mC]*eT*eT*eG*eA*e[5mC]) | 1.457 | –
CO-11228 (antisense eG*eT*lG*eG*eAlG*e[5mC]*eA*lAeA*e[5mC]*lT*eAeG*lG*e[5mC]*eAl[5mC]*eT*eG) | – | 1.99
CO-11223 (antisense eG*eT*lG*eGeAlGe[5mC]*eA*lA*eA*e[5mC]*lT*eA*eGlGe[5mC]eA*l[5mC]*eT*eG) | – | 1.80
CO-7014 (antisense eA*eG*eT*eG*eA*eG*eG*e[5mC]*eA*eT*e[5mC]*eA*eG*eG*eT*eA*eA*eG*eT*eT*e[5mC]*e[5mC]) | 1.293 | –
CO-7069 (e[5mC]*eA*eT*lT*eT*dA*dG*lA*dG*dA*d[5mC]*lA*dA*dA*dG*lA*eA*eT*e[5mC]*eG; antisense) | 1.011 | –
CO-7035 (antisense e[5mC]*eA*eT*eT*eT*dA*dG*dA*dG*dA*d[5mC]*dA*dA*dA*dG*eA*eA*eT*e[5mC]*eG) | 1.047 | –
CO-4503 (antisense eA*eT*eT*eG*eT*eA*eG*eG*eT*eG*e[5mC]eT*eG*e[5mC]*eG*eG*eG*eT*eA*eT) | 1.202 | –
CO-7094 (eA*e[5mC]*e[5mC]*e[5mC]*l[5mC]*e[5mC]*e[5mC]*eT*l[5mC]*eA*e[5mC]e[5mC]*lT*eT*eG*eG*lT*eT*e[5mC]*e[5mC]) | 0.993 | –
CO-4026 (antisense e[5mC]*eT*eT*eG*eT*e[5mC]*e[5mC]*eA*eG*eT*eG*eT*eA*eA*eA*e[5mC]*eA*eA*e[5mC]*eG) | 1.234 | –
CO-4511 (antisense eG*eT*eG*eG*eG*eA*eG*eT*eG*eG*eT*eA*eA*eG*eA*eT*eT*eA*eG*e[5mC]) | 1.182 | –
CO-7107 (eA*e[5mC]*eA*eT*eT*eT*eA*eG*eA*eG*eA*e[5mC]*eA*eA*eA*eG*eA*eA*eT*e[5mC]*eG*e[5mC]; antisense) | 1.148 | –
CO-6984 (antisense eT*eG*eA*eG*eG*eT*e[5mC]*eT*eA*eA*eT*eT*eT*eA*eG*eA*eA*eG*eA*e[5mC]) | 1.127 | –
CO-4033 (antisense eG*eA*eA*eA*e[5mC]*e[5mC]*eT*eT*eT*eT*eA*eA*e[5mC]*eT*e[5mC]*eT*e[5mC]*e[5mC]*eA*e[5mC]) | 1.472 | –
CO-6992 (antisense eT*eG*eG*lA*eT*eGeT*lA*eG*eA*eT*lG*eA*eA*eT*lG*eG*e[5mC]*eA*eA) | 0.992 | –
CO-7185 (antisense eT*eG*eG*e[5mC]*eG*lT*dT*dA*lT*dT*dA*lA*dT*dT*l[5mC]*eT*eA*e[5mC]*eA*eG) | 1.327 | –

Substance | ABCB11 mRNA FC (5 μM ASO vs. UNT) [fold change] | ABCB11 FC mRNA (5 μM ASO vs. untreated) [fold change]
CO-3994 (antisense e[5mC]*e[5mC]*e[5mC]*eA*e[5mC]*eT*e[5mC]*eT*eA*eG*eA*eT*eT*eG*e[5mC]*eA*eA*eG*e[5mC]*e[5mC]) | 1.988 | –
CO-7032 (antisense eA*e[5mC]*eA*eA*eA*eG*eA*eA*eT*e[5mC]*eG*e[5mC]*eT*eG*eT*eG*eG*e[5mC]*eA*eG) | 1.093 | –
CO-11220 (antisense eG*eT*lGeG*lAeG*l[5mC]eA*lAeA*l[5mC]eT*lAeG*lGe[5mC]*lAe[5mC]*eT*eG) | – | 2.22
CO-4017 (antisense e[5mC]*eT*eG*e[5mC]*eT*e[5mC]*eA*eA*eA*eG*eT*eA*eA*eA*eA*eA*eT*eA*e[5mC]*e[5mC]) | 1.228 | –
CO-11235 (antisense eG*eT*eG*eGlAeGe[5mC]*eA*eA*lA*e[5mC]*eT*eA*eGlGe[5mC]eA*e[5mC]*eT*eG) | – | 1.47
CO-4039 (antisense eG*eG*eT*eT*eA*eT*eT*eG*e[5mC]*eT*e[5mC]*eT*eG*eA*eG*eT*eA*eT*eG*eT) | 1.022 | –
CO-4514 (antisense eG*e[5mC]*eG*eG*eG*eA*eT*eT*eA*eG*eA*eT*eG*eA*eG*eG*eT*e[5mC]*eT*eA) | 1.175 | –
CO-11244 (antisense eG*eT*eGeG*lAeG*e[5mC]eA*eAlA*e[5mC]eT*eAeG*lGe[5mC]*eAe[5mC]*eT*eG) | – | 1.29
CO-7067 (eT*e[5mC]*eT*eG*lG*eA*eA*eA*eA*lT*eA*eA*eT*eG*l[5mC]*e[5mC]*eT*eT*eT*e[5mC]; antisense) | 1.081 | –
CO-7036 (antisense eG*eT*eA*e[5mC]*eA*eT*eT*eT*eA*eG*eA*eG*eA*e[5mC]*eA*eA*eA*eG*eA*eA) | 1.129 | –
CO-12756 (antisense eG*eTeG*eAeG*eGe[5mC]*eAeT*e[5mC]eA*eGeG*eTeA*eAeG*eTeT*e[5mC]) | – | 1.33
CO-7065 (eT*e[5mC]*eT*lG*eG*eA*eA*lA*eA*eT*eA*lA*eT*eG*e[5mC]*l[5mC]*eT*eT*eT*e[5mC]; antisense) | 1.262 | –
CO-7148: derivative ASO with additional chemical modifications based on parent ASO CO-4517 (antisense e[5mC]*e[5mC]*eT*eT*eA*eG*dG*dA*dG*dG*dA*dT*dT*dA*dT*dT*eT*eA*eA*e[5mC]*e[5mC]*eT) | 1.527 | –
CO-4515 (antisense eG*e[5mC]*e[5mC]*e[5mC]*eA*eA*eA*eT*eG*eA*eG*eG*eT*eG*eA*eT*eA*e[5mC]*eA*eA) | 0.978 | –
CO-4516 (antisense eA*eT*eG*eA*e[5mC]*eA*eT*eG*eA*eT*eA*eG*e[5mC]*eA*e[5mC]*e[5mC]*e[5mC]*eA*eA*e[5mC]) | 1.033 | –
CO-4508 (antisense eG*eT*eA*eG*eG*eA*eA*eG*eT*eT*eG*eA*eA*eT*eG*eA*eG*eT*eT*eG) | 1.185 | –
CO-4030 (antisense eT*e[5mC]*eA*e[5mC]*eA*eG*eGeT*eA*eA*eG*eT*eA*eA*e[5mC]*eT*eT*eA*eT*eA) | 1.106 | –
CO-12751 (antisense eG*eT*eG*eA*eGeG*e[5mC]*eA*eTe[5mC]*eA*eG*eGeT*eA*eA*eGeT*eT*e[5mC]) | – | 0.93
CO-7183 (antisense eG*eT*eG*eG*eA*lG*e[5mC]*eA*eA*eA*l[5mC]*eT*eA*eG*eG*l[5mC]*eA*e[5mC]*eT*eG) | 1.295 | –
CO-7011 (antisense eT*eG*eT*eG*eG*dA*dT*eG*dT*dA*eG*dA*dT*eG*dA*dA*eT*dG*dG*e[5mC]*eA*eA*eG*eG) | 1.284 | –
CO-4497 (antisense eG*eG*eT*eG*eT*eT*eG*eA*eG*eA*eA*e[5mC]*eT*eA*eG*eA*eA*eT*eA*eT) | 1.024 | –
CO-4480 (antisense e[5mC]*e[5mC]*eT*eG*eA*eG*eA*eT*eT*eG*eA*eG*e[5mC]*eT*eA*eT*eA*e[5mC]*eT*eG) | 0.931 | –
CO-6996 (antisense eG*eT*eG*lA*eG*dG*d[5mC]*lA*dT*d[5mC]*dA*lG*dG*dT*dA*lA*eG*eT*eT*e[5mC]) | 1.314 | –
CO-7195 (eG*eG*eT*eG*eG*eA*dG*d[5mC]*dA*dA*dA*d[5mC]*dT*dA*dG*dG*e[5mC]*eA*e[5mC]*eT*eG*eA; antisense) | 1.443 | –
CO-12754 (antisense eG*eT*eGeA*eG*eGe[5mC]*eA*eTe[5mC]*eA*eGeG*eT*eAeA*eG*eTeT*e[5mC]) | – | 1.04
